Source: ChEMBL document CHEMBL4507257, “Data for DCP probe ABT-100” (2021)
Active and inactive are the calls of the source.

Tests used:
[1] = molecular target: Sigma non-opioid intracellular receptor 1 (Homo sapiens, UniProt Q99720); experiment: GPCRScan assay: inhibition of Sigma 1; parameters: radioligand conc. used [nm] 4.0 – 5.0, parental cells HEKT
[2] = molecular target: Protein farnesyltransferase (Bos taurus, UniProt P29702+P49355); experiment: Scintillation proximity assay (SPA); format: protein-complex assay
[3] = molecular target: Cannabinoid receptor 2 (Homo sapiens) (UniProt P34972); experiment: CB2 (h) (peripheral) Ligand binding assay; details: Compound concentration 10.0 uM
[4] = molecular target: Cyclin-dependent kinase 7 (Homo sapiens, UniProt P50613); experiment: Inhibition of CDK7 at compound concentration of 10.0 uM using the ScanMax (DiscoverX)
[5] = molecular target: 5-hydroxytryptamine receptor 5A (Homo sapiens) (UniProt P47898); experiment: 5-HT5A (h) Ligand binding assay; details: Compound concentration 10.0 uM
[6] = molecular target: Muscarinic acetylcholine receptor M3 (Homo sapiens) (UniProt P20309); experiment: M3 (h) Ligand binding assay; details: Compound concentration 10.0 uM
[7] = Cl- ionophore Ligand binding assay
[8] = molecular target: L-type calcium channel (verapamil site) (Homo sapiens, UniProt O60840+Q01668+Q13698+Q13936); experiment: Ca2+ channel (L verapamil site) Ligand binding assay; format: protein assay
[9] = molecular target: T1, Muscarinic acetylcholine receptor M1 (Homo sapiens) (UniProt P11229); experiment: M1 (h) Ligand binding assay; details: Compound concentration 10.0 uM
T1 sequence (whole entry): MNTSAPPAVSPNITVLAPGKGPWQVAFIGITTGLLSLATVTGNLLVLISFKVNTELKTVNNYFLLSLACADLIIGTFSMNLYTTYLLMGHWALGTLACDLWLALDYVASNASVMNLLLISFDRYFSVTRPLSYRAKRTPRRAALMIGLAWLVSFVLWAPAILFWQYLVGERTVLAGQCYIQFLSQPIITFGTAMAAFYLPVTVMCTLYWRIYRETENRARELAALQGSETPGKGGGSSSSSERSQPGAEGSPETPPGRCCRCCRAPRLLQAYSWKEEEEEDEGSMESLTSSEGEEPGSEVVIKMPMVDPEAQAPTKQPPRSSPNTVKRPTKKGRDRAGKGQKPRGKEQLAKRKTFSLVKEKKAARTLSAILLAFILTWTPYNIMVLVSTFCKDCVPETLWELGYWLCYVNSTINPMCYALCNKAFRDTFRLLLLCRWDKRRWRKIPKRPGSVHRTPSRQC

[10] = molecular target: B2 bradykinin receptor (Homo sapiens) (UniProt P30411); experiment: B2 (h) Ligand binding assay; details: Compound concentration 10.0 uM
B2 bradykinin receptor (Homo sapiens), sequence (P30411 whole entry): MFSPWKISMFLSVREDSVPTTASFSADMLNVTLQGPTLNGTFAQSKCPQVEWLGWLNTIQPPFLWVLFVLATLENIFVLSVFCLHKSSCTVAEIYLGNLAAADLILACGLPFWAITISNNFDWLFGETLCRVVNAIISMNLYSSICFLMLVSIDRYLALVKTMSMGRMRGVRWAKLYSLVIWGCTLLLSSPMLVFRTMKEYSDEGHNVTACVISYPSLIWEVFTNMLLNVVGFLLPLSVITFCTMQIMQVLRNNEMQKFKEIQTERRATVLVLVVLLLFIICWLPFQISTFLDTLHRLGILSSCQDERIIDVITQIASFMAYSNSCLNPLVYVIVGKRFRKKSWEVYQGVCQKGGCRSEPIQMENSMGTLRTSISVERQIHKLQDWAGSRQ

[11] = molecular target: C-X-C chemokine receptor type 1 (Homo sapiens) (UniProt P25024); experiment: IL-8A (h) (CXCR1) Ligand binding assay; details: Compound concentration 10.0 uM
C-X-C chemokine receptor type 1 (Homo sapiens), sequence (P25024 whole entry): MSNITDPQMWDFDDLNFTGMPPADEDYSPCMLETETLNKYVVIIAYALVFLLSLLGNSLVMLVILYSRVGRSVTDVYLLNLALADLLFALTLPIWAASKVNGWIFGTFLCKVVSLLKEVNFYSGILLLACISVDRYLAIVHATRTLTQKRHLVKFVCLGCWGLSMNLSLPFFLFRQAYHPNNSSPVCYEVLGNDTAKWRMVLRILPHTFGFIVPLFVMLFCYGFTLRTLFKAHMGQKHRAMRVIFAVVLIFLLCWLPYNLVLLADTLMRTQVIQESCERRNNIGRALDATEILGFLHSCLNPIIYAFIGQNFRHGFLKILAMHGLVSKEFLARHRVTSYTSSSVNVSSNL

[12] = molecular target: Vasopressin V1a receptor (Homo sapiens) (UniProt P37288); experiment: V1a (h) Ligand binding assay; details: Compound concentration 10.0 uM
Vasopressin V1a receptor (Homo sapiens), sequence (P37288 whole entry, looked up): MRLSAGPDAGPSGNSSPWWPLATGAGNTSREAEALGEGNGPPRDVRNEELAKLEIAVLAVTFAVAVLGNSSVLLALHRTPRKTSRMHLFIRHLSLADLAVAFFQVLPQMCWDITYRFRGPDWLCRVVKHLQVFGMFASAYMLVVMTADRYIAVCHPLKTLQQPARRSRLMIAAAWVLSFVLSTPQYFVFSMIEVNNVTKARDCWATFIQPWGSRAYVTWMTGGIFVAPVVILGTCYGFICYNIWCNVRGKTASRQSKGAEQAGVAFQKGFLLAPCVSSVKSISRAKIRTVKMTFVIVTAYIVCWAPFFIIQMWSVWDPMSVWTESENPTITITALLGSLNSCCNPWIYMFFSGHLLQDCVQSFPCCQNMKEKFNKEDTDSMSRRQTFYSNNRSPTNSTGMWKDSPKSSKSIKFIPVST

[13] = molecular target: G protein-coupled receptor kinase 3 (Homo sapiens, UniProt P35626); experiment: Inhibition of GRK3 at compound concentration of 10.0 uM using the ScanMax (DiscoverX)
[14] = molecular target: 5-hydroxytryptamine receptor 1B (Homo sapiens) (UniProt P28222); experiment: 5-HT1B Ligand binding assay; details: Compound concentration 10.0 uM
[15] = molecular target: Serine/threonine-protein kinase BRSK2 (Homo sapiens, UniProt Q8IWQ3); experiment: Inhibition of BRSK2 at compound concentration of 10.0 uM using the ScanMax (DiscoverX)
[16] = molecular target: Neuromedin-K receptor (Homo sapiens) (UniProt P29371); experiment: NK3 (h) Ligand binding assay; details: Compound concentration 10.0 uM
[17] = molecular target: Cholecystokinin receptor type A (Homo sapiens) (UniProt P32238); experiment: CCKA (h) Ligand binding assay; details: Compound concentration 10.0 uM
[18] = molecular target: Type-1 angiotensin II receptor (Homo sapiens) (UniProt P30556); experiment: AT1 (h) Ligand binding assay; details: Compound concentration 10.0 uM
[19] = GABA (non selective) Ligand binding assay; details: Compound concentration 10.0 uM
[20] = molecular target: C-C chemokine receptor type 1 (Homo sapiens) (UniProt P32246); experiment: CCR1 (h) Ligand binding assay; details: Compound concentration 10.0 uM
C-C chemokine receptor type 1 (Homo sapiens), sequence (P32246 whole entry): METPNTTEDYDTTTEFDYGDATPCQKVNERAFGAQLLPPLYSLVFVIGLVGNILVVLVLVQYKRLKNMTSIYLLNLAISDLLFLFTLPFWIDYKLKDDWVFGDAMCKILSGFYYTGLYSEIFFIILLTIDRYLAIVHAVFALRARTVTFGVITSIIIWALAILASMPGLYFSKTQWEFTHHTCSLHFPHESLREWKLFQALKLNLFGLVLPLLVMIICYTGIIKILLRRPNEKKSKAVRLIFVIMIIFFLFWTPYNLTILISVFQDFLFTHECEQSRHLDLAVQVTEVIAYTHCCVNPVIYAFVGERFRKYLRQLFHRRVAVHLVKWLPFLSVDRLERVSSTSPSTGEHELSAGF

[21] = molecular target: Neurotensin receptor type 1 (Homo sapiens) (UniProt P30989); experiment: NT1 (h) Ligand binding assay; details: Compound concentration 10.0 uM
[22] = molecular target: D(1B) dopamine receptor (Homo sapiens) (UniProt P21918); details: Compound concentration 10.0 uM
D(1B) dopamine receptor (Homo sapiens), sequence (P21918 whole entry): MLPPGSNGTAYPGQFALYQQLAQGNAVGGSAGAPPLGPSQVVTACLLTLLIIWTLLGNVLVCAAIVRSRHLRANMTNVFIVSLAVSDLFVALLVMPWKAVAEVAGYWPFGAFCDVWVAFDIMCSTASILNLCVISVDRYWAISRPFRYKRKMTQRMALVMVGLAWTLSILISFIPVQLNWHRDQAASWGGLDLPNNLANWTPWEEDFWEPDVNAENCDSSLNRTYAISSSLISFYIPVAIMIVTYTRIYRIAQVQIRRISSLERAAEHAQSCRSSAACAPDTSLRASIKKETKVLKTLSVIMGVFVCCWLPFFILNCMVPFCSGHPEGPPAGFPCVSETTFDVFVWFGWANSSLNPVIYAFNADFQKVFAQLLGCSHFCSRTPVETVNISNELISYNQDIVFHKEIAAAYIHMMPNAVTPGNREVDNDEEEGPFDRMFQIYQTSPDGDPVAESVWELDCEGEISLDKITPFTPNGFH

[23] = molecular target: Cannabinoid receptor 1 (Homo sapiens) (UniProt P21554); experiment: CB1 (h) (central) Ligand binding assay
Cannabinoid receptor 1 (Homo sapiens), sequence (P21554 whole entry): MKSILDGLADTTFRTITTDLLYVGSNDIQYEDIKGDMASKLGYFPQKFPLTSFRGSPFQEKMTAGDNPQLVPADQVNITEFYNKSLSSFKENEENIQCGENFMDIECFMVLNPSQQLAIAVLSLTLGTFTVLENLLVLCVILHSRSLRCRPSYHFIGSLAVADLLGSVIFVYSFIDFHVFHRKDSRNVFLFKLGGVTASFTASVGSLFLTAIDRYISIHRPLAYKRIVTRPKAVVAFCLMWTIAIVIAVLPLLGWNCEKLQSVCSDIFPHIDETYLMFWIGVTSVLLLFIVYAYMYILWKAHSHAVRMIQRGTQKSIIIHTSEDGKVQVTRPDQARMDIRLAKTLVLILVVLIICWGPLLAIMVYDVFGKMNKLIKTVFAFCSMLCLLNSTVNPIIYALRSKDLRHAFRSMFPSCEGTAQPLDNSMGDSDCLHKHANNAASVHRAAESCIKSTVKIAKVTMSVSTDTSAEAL

[24] = molecular target: Histamine H1 receptor (Homo sapiens, UniProt P35367); experiment: GPCRScan assay: inhibition of H1; parameters: radioligand conc. used [nm] 0.6 – 2.0, parental cells stable HEK
[25] = molecular target: D(3) dopamine receptor (Homo sapiens) (UniProt P35462); experiment: D3 (h) Ligand binding assay; details: Compound concentration 10.0 uM
[26] = molecular target: Sodium-dependent noradrenaline transporter (Homo sapiens) (UniProt P23975); experiment: NE uptake (h) Ligand binding assay
Sodium-dependent noradrenaline transporter (Homo sapiens), sequence (P23975 whole entry): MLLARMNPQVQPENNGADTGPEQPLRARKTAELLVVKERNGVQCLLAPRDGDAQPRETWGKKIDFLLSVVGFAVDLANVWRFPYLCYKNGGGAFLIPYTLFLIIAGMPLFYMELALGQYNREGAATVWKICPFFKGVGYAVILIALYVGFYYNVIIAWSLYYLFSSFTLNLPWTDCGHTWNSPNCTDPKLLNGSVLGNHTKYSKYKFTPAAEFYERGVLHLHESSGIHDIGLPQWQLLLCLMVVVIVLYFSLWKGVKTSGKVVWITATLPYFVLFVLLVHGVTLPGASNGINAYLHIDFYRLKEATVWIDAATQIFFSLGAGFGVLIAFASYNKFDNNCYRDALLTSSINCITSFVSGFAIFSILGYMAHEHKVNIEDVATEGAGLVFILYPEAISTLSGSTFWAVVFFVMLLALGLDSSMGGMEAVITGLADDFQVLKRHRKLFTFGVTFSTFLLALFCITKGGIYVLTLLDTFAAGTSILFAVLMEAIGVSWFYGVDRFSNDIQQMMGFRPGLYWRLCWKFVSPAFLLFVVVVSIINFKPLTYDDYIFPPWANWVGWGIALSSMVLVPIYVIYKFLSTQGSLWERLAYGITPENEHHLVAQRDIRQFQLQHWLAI

[27] = molecular target: Tumor necrosis factor (Homo sapiens) (UniProt P01375); experiment: TNF-alpha (h) Ligand binding assay; details: Compound concentration 10.0 uM
[28] = molecular target: D(2) dopamine receptor (Homo sapiens) (UniProt P14416); experiment: D2 (h) Ligand binding assay; details: Compound concentration 10.0 uM
[29] = molecular target: Adenosine receptor A1 (Homo sapiens) (UniProt P30542); experiment: A1 (h) Ligand binding assay; details: Compound concentration 10.0 uM
[30] = Immunoblot method to monitor prenylation inhibition of Ras; parameters: species or system Homo sapiens
[31] = molecular target: Aurora kinase B (Homo sapiens, UniProt Q96GD4); experiment: Inhibition of AURKB at compound concentration of 10.0 uM using the ScanMax (DiscoverX)
[32] = molecular target: 5-hydroxytryptamine receptor 7 (Homo sapiens) (UniProt P34969); experiment: 5-HT7 (h) Ligand binding assay; details: Compound concentration 10.0 uM
[33] = molecular target: Homeodomain-interacting protein kinase 2 (Homo sapiens, UniProt Q9H2X6); experiment: Inhibition of HIPK2 at compound concentration of 10.0 uM using the ScanMax (DiscoverX)
[34] = molecular target: Substance-P receptor (Homo sapiens) (UniProt P25103); experiment: NK1 (h) Ligand binding assay
Substance-P receptor (Homo sapiens), sequence (P25103 whole entry): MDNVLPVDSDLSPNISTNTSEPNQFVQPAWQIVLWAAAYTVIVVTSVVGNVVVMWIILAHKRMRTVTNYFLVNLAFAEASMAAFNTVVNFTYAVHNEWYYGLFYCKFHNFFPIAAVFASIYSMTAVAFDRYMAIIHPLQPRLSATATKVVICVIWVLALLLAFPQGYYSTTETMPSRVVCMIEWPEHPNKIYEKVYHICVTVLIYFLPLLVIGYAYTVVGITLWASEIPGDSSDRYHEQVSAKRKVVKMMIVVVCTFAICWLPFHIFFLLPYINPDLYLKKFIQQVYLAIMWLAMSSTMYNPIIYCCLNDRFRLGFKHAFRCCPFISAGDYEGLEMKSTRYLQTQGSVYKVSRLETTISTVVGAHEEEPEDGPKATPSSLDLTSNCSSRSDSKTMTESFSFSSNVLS

[35] = molecular target: Endothelin receptor type B (Homo sapiens) (UniProt P24530); experiment: ETB (h) Ligand binding assay; details: Compound concentration 10.0 uM
Endothelin receptor type B (Homo sapiens), sequence (P24530 whole entry): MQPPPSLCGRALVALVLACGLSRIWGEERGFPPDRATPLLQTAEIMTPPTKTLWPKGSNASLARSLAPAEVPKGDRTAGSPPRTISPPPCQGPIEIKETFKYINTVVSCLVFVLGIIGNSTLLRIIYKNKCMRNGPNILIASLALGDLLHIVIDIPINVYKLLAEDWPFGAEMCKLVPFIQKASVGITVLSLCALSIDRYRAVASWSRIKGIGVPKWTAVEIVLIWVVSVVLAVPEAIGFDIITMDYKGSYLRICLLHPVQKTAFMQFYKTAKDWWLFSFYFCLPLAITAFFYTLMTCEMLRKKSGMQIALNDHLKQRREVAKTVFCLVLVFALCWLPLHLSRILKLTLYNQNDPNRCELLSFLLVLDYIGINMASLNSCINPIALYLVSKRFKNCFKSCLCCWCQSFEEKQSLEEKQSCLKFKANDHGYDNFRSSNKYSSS

[36] = molecular target: P2X receptor (Rattus norvegicus) (UniProt P51579+P49653+P51578+Q64663+P47824+P51577+P49654); experiment: P2X Ligand binding assay; format: protein assay; details: Compound concentration 10.0 uM
[37] = molecular target: Kappa-type opioid receptor (Homo sapiens) (UniProt P41145); experiment: Kappa (h) Ligand binding assay; details: Compound concentration 10.0 uM
Kappa-type opioid receptor (Homo sapiens), sequence (P41145 whole entry): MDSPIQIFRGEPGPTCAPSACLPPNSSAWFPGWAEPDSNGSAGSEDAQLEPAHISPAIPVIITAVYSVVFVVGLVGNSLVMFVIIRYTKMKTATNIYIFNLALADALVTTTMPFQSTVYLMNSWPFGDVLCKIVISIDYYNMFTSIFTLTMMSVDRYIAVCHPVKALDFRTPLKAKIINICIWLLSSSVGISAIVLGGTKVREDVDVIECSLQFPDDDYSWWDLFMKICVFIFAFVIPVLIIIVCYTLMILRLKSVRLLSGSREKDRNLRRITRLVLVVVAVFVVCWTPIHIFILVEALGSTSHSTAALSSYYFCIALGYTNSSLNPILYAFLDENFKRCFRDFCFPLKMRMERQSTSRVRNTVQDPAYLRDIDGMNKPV

[38] = molecular target: Sigma receptor (Homo sapiens) (UniProt Q99720+Q5BJF2); experiment: Sigma (non selective) Ligand binding assay; format: protein assay
Sigma receptor (Homo sapiens), sequence (Q5BJF2 whole entry, looked up): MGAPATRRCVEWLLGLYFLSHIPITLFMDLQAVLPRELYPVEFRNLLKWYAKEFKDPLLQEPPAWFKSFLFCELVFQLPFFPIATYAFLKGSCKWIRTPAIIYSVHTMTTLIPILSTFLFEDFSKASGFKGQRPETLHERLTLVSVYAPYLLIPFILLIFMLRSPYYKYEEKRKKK
Sigma receptor (Homo sapiens), sequence (Q99720 whole entry, looked up): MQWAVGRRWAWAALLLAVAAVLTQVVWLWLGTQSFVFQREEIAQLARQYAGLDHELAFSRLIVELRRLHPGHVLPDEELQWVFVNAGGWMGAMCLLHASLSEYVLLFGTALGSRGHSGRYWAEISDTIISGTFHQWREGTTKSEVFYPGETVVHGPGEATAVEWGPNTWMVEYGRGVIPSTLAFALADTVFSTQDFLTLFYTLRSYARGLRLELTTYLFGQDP

[39] = molecular target: Adrenergic receptor alpha-2 (Homo sapiens) (UniProt P08913+P18825+P18089); experiment: alpha2 (non-selective) Ligand binding assay; format: protein assay; details: Compound concentration 10.0 uM
[40] = molecular target: D(1B) dopamine receptor (Homo sapiens) (UniProt P21918); experiment: D5 (h) Ligand binding assay; details: Compound concentration 10.0 uM
[41] = molecular target: Type-2 angiotensin II receptor (Homo sapiens) (UniProt P50052); experiment: AT2 (h) Ligand binding assay; details: Compound concentration 10.0 uM

Sigma non-opioid intracellular receptor 1, sequence (Q99720 whole entry): as the sequence (Q99720 whole entry, looked up) above

Cn1cncc1[C@@](O)(COc1ccc(C#N)cc1-c1ccc(OC(F)(F)F)cc1)c1ccc(C#N)cc1 [A-108]
0.0916 µM: Ki [1]
> 0.1 µM (not active): IC50 [2]

Cn1cncc1[C@](O)(COc1ccc(C#N)cc1-c1ccc(OC(F)(F)F)cc1)c1ccc(C#N)cc1 [ABT-100]
10 µM: Ki [24]
37% (not active): inhibition at 3 µM ([8]; compound concentration 3 uM)
active: inhibition ([7]; Compound concentration 10.0 uM) 67% | inhibition ([23]; Compound concentration 10.0 uM) 68% | inhibition ([26]; Compound concentration 10.0 uM) 74% | EC50 [30] 0.00073 µM | inhibition ([34]; Compound concentration 10.0 uM) 68% | inhibition ([38]; Compound concentration 10.0 uM) 67% | inhibition [40] 54%
> 10 µM (not active): Kd [4] | Kd [13] | Kd [15] | Kd [31] | Kd [33]
10% (not active): inhibition at 1 µM ([8]; compound concentration 1 uM)
60%: inhibition at 10 µM ([8]; compound concentration 10 uM)
inactive: inhibition [3] < 10% | inhibition [5] 30% | inhibition [6] < 10% | inhibition ([7]; Compound concentration 3.0 uM) 30% | inhibition [9] < 10% | inhibition [10] < 10% | inhibition [11] < 10% | inhibition [12] < 10% | inhibition [14] < 10% | inhibition [16] 45% | inhibition [17] < 10% | inhibition [18] < 10% | inhibition [19] < 10% | inhibition [20] < 10% | inhibition [21] < 10% | inhibition [22] 4.79% | inhibition ([23]; Compound concentration 1.0 uM) 23% | inhibition ([23]; Compound concentration 3.0 uM) 45% | inhibition [25] 36% | inhibition ([26]; Compound concentration 3.0 uM) 45% | inhibition [27] 24% | inhibition [28] 12% | inhibition [29] < 10% | inhibition [32] 22% | inhibition ([34]; Compound concentration 3.0 uM) 31% | inhibition [35] 21% | inhibition [36] < 10% | inhibition [37] 36% | inhibition ([38]; Compound concentration 3.0 uM) 28% | inhibition [39] < 10% | inhibition [41] < 10%
